Assay results: PubChem BioAssay (NCI)
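Method: 48-hour compound exposure of cells in 96-well plates, five concentrations, linear interpolation of endpoints. The concentration for 50% growth inhibition is given as GI50. TGI: concentration producing complete growth inhibition.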

Columns and labels:
Assay in all cases: growth of human tumour cells (NCI), 48 h
SK-MEL-28 melanoma = test system: SK-MEL-28 melanoma
UACC-257 melanoma = test system: UACC-257 melanoma
EKVX NSCLC = test system: EKVX NSCLC
HCC-2998 colon = test system: HCC-2998 colon
IGROV1 ovarian = test system: IGROV1 ovarian
M14 melanoma = test system: M14 melanoma
786-0 renal = test system: 786-0 renal
HS 578T breast = test system: HS 578T breast
CCRF-CEM leukemia = test system: CCRF-CEM leukemia
OVCAR-8 ovarian = test system: OVCAR-8 ovarian
U251 CNS = test system: U251 CNS
BT-549 breast = test system: BT-549 breast
MDA-MB-435 = test system: MDA-MB-435
SK-MEL-2 melanoma = test system: SK-MEL-2 melanoma
RXF 393 renal = test system: RXF 393 renal
NCI/ADR-RES ovarian = test system: NCI/ADR-RES ovarian
PC-3 prostate = test system: PC-3 prostate
CAKI-1 renal = test system: CAKI-1 renal
UO-31 renal = test system: UO-31 renal
SF-539 CNS = test system: SF-539 CNS
SN12C renal = test system: SN12C renal
SNB-19 CNS = test system: SNB-19 CNS
RPMI-8226 leukemia = test system: RPMI-8226 leukemia
A549 NSCLC = test system: A549 NSCLC
SF-295 CNS = test system: SF-295 CNS
NCI-H522 lung = test system: NCI-H522 lung
HT29 colon = test system: HT29 colon
SR leukemia = test system: SR leukemia
UACC-62 melanoma = test system: UACC-62 melanoma
NCI-H460 lung = test system: NCI-H460 lung
SK-OV-3 ovarian = test system: SK-OV-3 ovarian
DU-145 prostate = test system: DU-145 prostate
MDA-MB-231 breast = test system: MDA-MB-231 breast
ACHN renal = test system: ACHN renal
SW-620 colon = test system: SW-620 colon
T-47D breast = test system: T-47D breast
SF-268 CNS = test system: SF-268 CNS
NCI-H226 lung = test system: NCI-H226 lung
COLO 205 colon = test system: COLO 205 colon
HOP-62 NSCLC = test system: HOP-62 NSCLC
A498 renal = test system: A498 renal
MCF7 breast = test system: MCF7 breast
OVCAR-3 ovarian = test system: OVCAR-3 ovarian
TK-10 renal = test system: TK-10 renal
OVCAR-5 ovarian = test system: OVCAR-5 ovarian
LOX IMVI melanoma = test system: LOX IMVI melanoma
MOLT-4 leukemia = test system: MOLT-4 leukemia
OVCAR-4 ovarian = test system: OVCAR-4 ovarian
K-562 leukemia = test system: K-562 leukemia
HCT-116 colon = test system: HCT-116 colon
HOP-92 NSCLC = test system: HOP-92 NSCLC
NCI-H23 lung = test system: NCI-H23 lung
SK-MEL-5 melanoma = test system: SK-MEL-5 melanoma
SNB-75 CNS = test system: SNB-75 CNS
HCT-15 colon = test system: HCT-15 colon
KM12 colon = test system: KM12 colon

With CCOC(=O)c1sc(=S)c2c(C(=O)OCC)c(C(=O)OCC)sc2c1C(=O)OCC the GI50 (SK-MEL-28 melanoma) was 21.3 µM, the TGI (SK-MEL-28 melanoma) was 54.7 µM and the GI50 (UACC-257 melanoma) was 15.1 µM. For the same compound, the TGI (UACC-257 melanoma) was 39 µM, the GI50 (EKVX NSCLC) was 21.5 µM and the TGI (EKVX NSCLC) was 43.4 µM. For the same compound, the GI50 (HCC-2998 colon) was 13.1 µM, the TGI (HCC-2998 colon) was 28.7 µM and the GI50 (IGROV1 ovarian) was 13.4 µM. The TGI (IGROV1 ovarian) was 29.8 µM, the GI50 (M14 melanoma) was 16.8 µM and the TGI (M14 melanoma) was 32.6 µM. The GI50 (786-0 renal) was 20.4 µM, the TGI (786-0 renal) was 44.5 µM and the GI50 (HS 578T breast) was 17.7 µM. For the same compound, the TGI (HS 578T breast) was 47.3 µM, the GI50 (CCRF-CEM leukemia) was 19.1 µM and the TGI (CCRF-CEM leukemia) was 61.7 µM. For the same compound, the GI50 (OVCAR-8 ovarian) was 17.8 µM, the TGI (OVCAR-8 ovarian) was 40 µM and the GI50 (U251 CNS) was 12.7 µM. For the same compound, the TGI (U251 CNS) was 26.5 µM, the GI50 (BT-549 breast) was 21.5 µM and the TGI (BT-549 breast) was 45.4 µM. For the same compound, the GI50 (MDA-MB-435) was 27.4 µM, the TGI (MDA-MB-435) was 67.2 µM and the GI50 (SK-MEL-2 melanoma) was 21.2 µM. It also gave a TGI (SK-MEL-2 melanoma) of 44.7 µM, a GI50 (RXF 393 renal) of 13 µM and a TGI (RXF 393 renal) of 39.4 µM. It also gave a GI50 (NCI/ADR-RES ovarian) of 17.3 µM, a TGI (NCI/ADR-RES ovarian) of 35.9 µM and a GI50 (PC-3 prostate) of 8.17 µM. For the same compound, the TGI (PC-3 prostate) was 21.2 µM, the GI50 (CAKI-1 renal) was 26.5 µM and the TGI (CAKI-1 renal) was 93.9 µM. It also gave a GI50 (UO-31 renal) of 15.1 µM, a TGI (UO-31 renal) of 30.9 µM and a GI50 (SF-539 CNS) of 18.9 µM. The TGI (SF-539 CNS) was 36.1 µM, the GI50 (SN12C renal) was 11.2 µM and the TGI (SN12C renal) was 26.7 µM. The GI50 (SNB-19 CNS) was 32.2 µM, the TGI (SNB-19 CNS) was over 100 µM and the GI50 (RPMI-8226 leukemia) was 7.88 µM. The TGI (RPMI-8226 leukemia) was 28 µM, the GI50 (A549 NSCLC) was 16.4 µM and the TGI (A549 NSCLC) was 42.8 µM. It also gave a GI50 (SF-295 CNS) of 31.4 µM, a TGI (SF-295 CNS) of 94.8 µM and a GI50 (NCI-H522 lung) of 10.6 µM. For the same compound, the TGI (NCI-H522 lung) was 26.4 µM, the GI50 (HT29 colon) was 28 µM and the TGI (HT29 colon) was over 100 µM. It also gave a GI50 (SR leukemia) of 15 µM, a TGI (SR leukemia) of 35.4 µM and a GI50 (UACC-62 melanoma) of 12.1 µM. It also gave a TGI (UACC-62 melanoma) of 26.9 µM, a GI50 (NCI-H460 lung) of 21.4 µM and a TGI (NCI-H460 lung) of 51.2 µM. For the same compound, the GI50 (SK-OV-3 ovarian) was 43.3 µM, the TGI (SK-OV-3 ovarian) was over 100 µM and the GI50 (DU-145 prostate) was 17.4 µM. The TGI (DU-145 prostate) was 39 µM, the GI50 (MDA-MB-231 breast) was 14.6 µM and the TGI (MDA-MB-231 breast) was 32.7 µM. For the same compound, the GI50 (ACHN renal) was 16.6 µM, the TGI (ACHN renal) was 39.4 µM and the GI50 (SW-620 colon) was 23.7 µM. The TGI (SW-620 colon) was 56.4 µM, the GI50 (T-47D breast) was 23.7 µM and the TGI (T-47D breast) was 95.5 µM. It also gave a GI50 (SF-268 CNS) of 16.4 µM, a TGI (SF-268 CNS) of 33.9 µM and a GI50 (NCI-H226 lung) of 10.9 µM. The TGI (NCI-H226 lung) was 26.7 µM, the GI50 (COLO 205 colon) was 27.6 µM and the TGI (COLO 205 colon) was over 100 µM. For the same compound, the GI50 (HOP-62 NSCLC) was 17.6 µM, the TGI (HOP-62 NSCLC) was 33.4 µM and the GI50 (A498 renal) was 18.2 µM. It also gave a TGI (A498 renal) of 33.9 µM, a GI50 (MCF7 breast) of 15.2 µM and a TGI (MCF7 breast) of 29.9 µM. The GI50 (OVCAR-3 ovarian) was 16 µM, the TGI (OVCAR-3 ovarian) was 68 µM and the GI50 (TK-10 renal) was 5.85 µM. The TGI (TK-10 renal) was 39.4 µM, the GI50 (OVCAR-5 ovarian) was 17.6 µM and the TGI (OVCAR-5 ovarian) was 35.7 µM. For the same compound, the GI50 (LOX IMVI melanoma) was 14.1 µM, the TGI (LOX IMVI melanoma) was 27.9 µM and the GI50 (MOLT-4 leukemia) was 15.9 µM. The TGI (MOLT-4 leukemia) was 42.3 µM, the GI50 (OVCAR-4 ovarian) was 20.7 µM and the TGI (OVCAR-4 ovarian) was 56.9 µM. The GI50 (K-562 leukemia) was 10.6 µM, the TGI (K-562 leukemia) was 25.1 µM and the GI50 (HCT-116 colon) was 18 µM. It also gave a TGI (HCT-116 colon) of 40 µM, a GI50 (HOP-92 NSCLC) of 10.3 µM and a TGI (HOP-92 NSCLC) of 23 µM. For the same compound, the GI50 (NCI-H23 lung) was 17.4 µM, the TGI (NCI-H23 lung) was 35.5 µM and the GI50 (SK-MEL-5 melanoma) was 16.4 µM. The TGI (SK-MEL-5 melanoma) was 32.9 µM, the GI50 (SNB-75 CNS) was 40.3 µM and the TGI (SNB-75 CNS) was over 100 µM. For the same compound, the GI50 (HCT-15 colon) was 14.4 µM, the TGI (HCT-15 colon) was 28.5 µM and the GI50 (KM12 colon) was 18.4 µM. For the same compound, the TGI (KM12 colon) was 44.5 µM.
